Data as given in patent publication US6448442B1, “Contrast media” (Amersham Health AS, priority 1999, dated 2002).

Experiments:
[1] = Viscosity in aqueous solution at 20° C. (Example 82, Tables 1 and 2); assay type: physicochemical; details: for Viscosity at 400 mgI/ml (CALCULATED): calculated for 400 mgI/ml; for Viscosity 350 mgI/ml (CALCULATED): calculated for 350 mgI/ml
Method: The viscosities in aqueous solution at 20° C. for some further compounds described above were determined and are listed in Table 2. […]

[2] = Determination of viscosity (Example 121, flow time in syringe against reference sample); assay type: physicochemical; details: 350 mgI/ml, 20° C.
Method: The apparatus consisted of a thermostated 10 μl graduated sample syringe connected to a conical shaped 100 μl sample vial. The syringe needle as well as a probe for temperature measurements (±0.2° C.) was inserted through an airtight septum at the top of the vial. Through the septum was also inserted a small tubing connected to an air syringe via a PTFE tubing.
To determine viscosity, 15≧75 μl of the sample liquid was placed at the bottom of the sample vial. The liquid was forced up into the sample syringe by a slight over pressure generated manually by the air syringe. When the syringe was almost filled, the over pressure was released so the liquid, forced only by gravity, could flow freely out from the syringe back into the vial. The time for the liquid surface to pass between the marks of e.g. 5 and 10 μl in the syringe was measured […]
The viscosity is calculated as follows: […]
ηS=Viscosity of the sample
ηR=Viscosity of a reference sample with known viscosity and with similar composition as the sample e.g. Iohexol or Iodixanol dS=Density of sample solution dR=Density of reference solution tS=Average time for sample surface to pass between two marks in the syringe tR=Corresponding time for reference sample
The results of these determinations of viscosity for various of the present Examples and two commercially available X-ray contrast media are shown in Table 1′ below. In all cases, the values refer to concentrations of 350 mgI/ml at a temperature of 20° C.

Structure (SMILES): O=C(c1c(I)c(CO)c(I)c(N(CCO)C(=O)C(O)CO)c1I)N(CCO)CCO (centres unmarked) [Example 43, 5-[N′-(2-Hydroxyethyl)-2,3-dihydroxypropionylamino]-3-hydroxy-methyl-N,N-bis (2-hydroxyethyl)-2,4,6-triiodobenzamide]
- Viscosity at 400 mgI/ml (CALCULATED) [1]: 14.2 mPas
- Viscosity 20° C. ([1]; concentration 488 mgI/ml): 42 mPas

Structure (SMILES): CN(CC(O)CO)C(=O)c1c(I)c(CCO)c(I)c(NC(=O)CO)c1I (centres unmarked) [Example 44, 5-Hydroxyacetamido-3-hydroxyethyl-N-methyl-N-(2,3-dihydroxy-propyl)-2,4,6-triiodobenzamide]
- Viscosity at 400 mgI/ml (CALCULATED) [1]: 10.8 mPas
- Viscosity 20° C. ([1]; concentration 481 mgI/ml): 24 mPas

Structure (SMILES): CN(CC(O)CO)C(=O)c1c(I)c(CO)c(I)c(N(CCO)C(=O)CO)c1I (centres unmarked) [Example 45, 5-[N′-(2-Hydroxyethyl)-hydroxyacetamido]-3-hydroxymethyl-N-methyl-N-(2,3-dihydroxypropyl)-2,4,6-triiodobenzamide]
- Viscosity at 400 mgI/ml (CALCULATED) [1]: 13.9 mPas
- Viscosity 20° C. ([1]; concentration 483 mgI/ml): 32 mPas

Structure (SMILES): CN(CC(O)CO)C(=O)c1c(I)c(CO)c(I)c(NC(=O)C(O)CO)c1I (centres unmarked) [Example 46]
- Viscosity at 400 mgI/ml (CALCULATED) [1]: 16.4 mPas
- Viscosity 20° C. ([1]; concentration 474 mgI/ml): 41 mPas

Structure (SMILES): CN(CC(O)CO)C(=O)c1c(I)c(CO)c(I)c(N(CCO)C(=O)C(O)CO)c1I (centres unmarked) [Example 47, 5-[N′-(2-Hydroxyethyl)-2,3-dihydroxypropionylamino]-3-hydroxymethyl-N-methyl-N-(2,3-dihydroxypropyl)-2,4,6-triiodobenzamide]
- Viscosity at 400 mgI/ml (CALCULATED) [1]: 16.4 mPas
- Viscosity 20° C. ([1]; concentration 447 mgI/ml): 28 mPas

Structure (SMILES): O=C(NC(CO)CO)c1c(I)c(CO)c(I)c(N(CCO)C(=O)CO)c1I [Example 49, 5-[N′-(2-Hydroxyethyl)-hydroxyacetamido]-3-hydroxymethyl-N-(1,3-dihydroxyprop-2-yl)-2,4,6-triiodobenzamide]
- Viscosity at 400 mgI/ml (CALCULATED) [1]: 13.2 mPas
- Viscosity 20° C. ([1]; concentration 380 mgI/ml): 11 mPas

Structure (SMILES): O=C(NCCO)c1c(I)c(CO)c(I)c(NC(=O)C(O)CO)c1I (centres unmarked) [Example 52, 5-(2,3-Dihydroxypropionylamino)-3-hydroxymethyl-N-(2-hydroxyethyl)-2,4,6-triiodobenzamide]
- Viscosity at 400 mgI/ml (CALCULATED) [1]: 9.8 mPas
- Viscosity 20° C. ([1]; concentration 514 mgI/ml): 29 mPas

Structure (SMILES): O=C(NC(CO)(CO)CO)c1c(I)c(CO)c(I)c(N(CCO)C(=O)CO)c1I [Example 55, 5-[N′-(2-Hydroxyethyl)-hydroxyacetamido]-3-hydroxymethyl-N-[tris-(hydroxymethyl)-methyl]-2,4,6-triiodobenzamide]
- Viscosity at 400 mgI/ml (CALCULATED) [1]: 19.4 mPas
- Viscosity 20° C. ([1]; concentration 429 mgI/ml): 28 mPas

Structure (SMILES): O=C(C(O)CO)N(CCO)c1c(I)c(CCO)c(I)c(N(CCO)C(=O)C(O)CO)c1I (centres unmarked) [Example 62, 3,5-Bis[N-(2-hydroxyethyl)-2,3-dihydroxypropionylamino]-2,4,6-triiodo-(2-hydroxyethyl)benzene]
- Viscosity at 400 mgI/ml (CALCULATED) [1]: 14.3 mPas
- Viscosity 20° C. ([1]; concentration 353 mgI/ml): 9 mPas

Structure (SMILES): O=C(Nc1c(I)c(CC(O)CO)c(I)c(NC(=O)C(O)CO)c1I)C(O)CO (centres unmarked) [Example 64, 3,5-Bis-(2,3-dihydroxypropionylamino)-2,4,6-triiodo-(2,3-dihydroxy-propyl)-benzene]
- Viscosity 350 mgI/ml (CALCULATED) [1]: 8.3 mPas
- Viscosity at 400 mgI/ml (CALCULATED) [1]: 13.0 mPas
- Viscosity 20° C. ([1]; concentration 419 mgI/ml): 16 mPas

Structure (SMILES): CC(O)C(=O)N(CCO)c1c(I)c(CO)c(I)c(C(=O)NC(CO)C(O)CO)c1I (centres unmarked) [Example 65, 5-[N′-(2-Hydroxyethyl)-2-hydroxypropionylamino]-3-hydroxymethyl-N-(1,3,4-trihydroxybut-2-yl)-2,4,6-triiodobenzamide]
- Viscosity 350 mgI/ml (CALCULATED) [1]: 10.4 mPas
- Viscosity at 400 mgI/ml (CALCULATED) [1]: 17.8 mPas
- Viscosity 20° C. ([1]; concentration 413 mgI/ml): 21 mPas

Structure (SMILES): O=C(NCCO)c1c(I)c(CO)c(I)c(N(CC(O)CO)C(=O)C(O)CO)c1I (centres unmarked) [Example 66, 5-[N′-(2,3-Dihydroxypropyl)-2,3-dihydroxypropionylamino]-3-hydroxymethyl-N-(2-hydroxyethyl)-2,4,6-triiodobenzamide]
- Viscosity 350 mgI/ml (CALCULATED) [1]: 9.3 mPas
- Viscosity at 400 mgI/ml (CALCULATED) [1]: 15.2 mPas
- Viscosity 20° C. ([1]; concentration 401 mgI/ml): 15 mPas

Structure (SMILES): O=C(CO)Nc1c(I)c(CO)c(I)c(C(=O)N(CC(O)CO)CC(O)CO)c1I (centres unmarked) [Example 67, 5-(hydroxyacetamido)-3-hydroxymethyl-N,N-bis-(2,3-dihydroxy-propyl)-2,4,6-triiodobenzamide]
- Viscosity at 400 mgI/ml (CALCULATED) [1]: 16.2 mPas
- Viscosity 20° C. ([1]; concentration 407 mgI/ml): 18 mPas

Structure (SMILES): O=C(c1c(I)c(CO)c(I)c(N(CCO)C(=O)CO)c1I)N(CC(O)CO)CC(O)CO (centres unmarked) [Example 68, 5-[N′-(2-Hydroxyethyl)-hydroxyacetamido]-3-hydroxymethyl-N,N-bis-(2,3-dihydroxypropyl)-2,4,6-tiiodobenzamide]
- Viscosity at 400 mgI/ml (CALCULATED) [1]: 19.1 mPas
- Viscosity 20° C. ([1]; concentration 450 mgI/ml): 31 mPas

Structure (SMILES): CC(O)C(=O)Nc1c(I)c(CO)c(I)c(C(=O)N(CC(O)CO)CC(O)CO)c1I (centres unmarked) [Example 69, 5-(2-Hydroxypropionylamino)-3-hydroxymethyl-N,N-bis-(2,3-dihydroxypropyl)-2,4,6-triiodobenzamide]
- Viscosity at 400 mgI/ml (CALCULATED) [1]: 17.0 mPas
- Viscosity 20° C. ([1]; concentration 417 mgI/ml): 21 mPas

Structure (SMILES): O=C(c1c(I)c(CO)c(I)c(N2CCCC(O)C2=O)c1I)N(CC(O)CO)CC(O)CO (centres unmarked) [Example 70, 5-(3-Hydroxy-2-oxo-1-piperidinyl)-3-hydroxymethyl-N,N-bis-(2,3-dihydroxypropyl)-2,4,6-triiodobenzamide]
- Viscosity at 400 mgI/ml (CALCULATED) [1]: 27.8 mPas
- Viscosity 20° C. ([1]; concentration 361 mgI/ml): 16 mPas

Structure (SMILES): O=C(CO)Nc1c(I)c(CC(O)CO)c(I)c(NC(=O)CO)c1I (centres unmarked) [Example 71, 3,5-Bis-(Hydroxyacetamido)-2,4,6-triiodo-(2,3-dihydroxypropyl)benzene]
- Viscosity 350 mgI/ml (CALCULATED) [1]: 6.0 mPas
- Viscosity at 400 mgI/ml (CALCULATED) [1]: 8.8 mPas
- Viscosity 20° C. ([1]; concentration 455 mgI/ml): 14 mPas

Structure (SMILES): O=C(CO)Nc1c(I)c(CC(O)CO)c(I)c(N(CCO)C(=O)CO)c1I (centres unmarked) [Example 72, 5-Hydroxyacetamido-3-[N-(2-hydroxyethyl)-hydroxyacetamido]-2,4,6-triiodo-(2,3-dihydroxypropyl)benzene]
- Viscosity 350 mgI/ml (CALCULATED) [1]: 7.2 mPas
- Viscosity at 400 mgI/ml (CALCULATED) [1]: 11.0 mPas
- Viscosity 20° C. ([1]; concentration 432 mgI/ml): 15 mPas

Structure (SMILES): O=C(CO)N(CCO)c1c(I)c(CC(O)CO)c(I)c(N(CCO)C(=O)CO)c1I (centres unmarked) [Example 73, 3,5-Bis-[N,N′-(2-hydroxyethyl)-hydroxyacetamido]-2,4,6-triiodo-(2,3-dihydroxypropyl)benzene]
- Viscosity 350 mgI/ml (CALCULATED) [1]: 6.7 mPas
- Viscosity at 400 mgI/ml (CALCULATED) [1]: 10.4 mPas
- Viscosity 20° C. ([1]; concentration 396 mgI/ml): 10 mPas

Structure (SMILES): O=C(CO)Nc1c(I)c(CC(O)CO)c(I)c(N(CC(O)CO)C(=O)CO)c1I (centres unmarked) [Example 74, 5-Hydroxyacetamido-3-[N-(2,3-dihydroxypropyl)-hydroxyacetamido]-2,4,6-triiodo-(2,3-dihydroxypropyl)benzene]
- Viscosity 350 mgI/ml (CALCULATED) [1]: 9.3 mPas
- Viscosity at 400 mgI/ml (CALCULATED) [1]: 15.8 mPas
- Viscosity 20° C. ([1]; concentration 399 mgI/ml): 16 mPas

Structure (SMILES): O=C(CO)N(CC(O)CO)c1c(I)c(CC(O)CO)c(I)c(N(CC(O)CO)C(=O)CO)c1I (centres unmarked) [Example 75, 3,5-Bis-[N,N′-(2,3-dihydroxypropyl)-hydroxyacetamido]-2,4,6-triiodo-(2,3-dihydroxypropyl)benzene]
- Viscosity 350 mgI/ml (CALCULATED) [1]: 14.6 mPas
- Viscosity at 400 mgI/ml (CALCULATED) [1]: 28.4 mPas
- Viscosity 20° C. ([1]; concentration 359 mgI/ml): 16 mPas

Structure (SMILES): Nc1c(I)c(NC(=O)CO)c(I)c(C(O)C(=O)NC(=O)C(O)CO)c1I (centres unmarked) [Example 98, N-(2,3-Dihydroxypropionyl)-N′-hydroxyacetyl-3,5-diamino-2,4,6-triiodomandeloamide]
- Viscosity [2]: 6.9 mPas

Structure (SMILES): Nc1c(I)c(NC(=O)C(O)CO)c(I)c(C(O)C(=O)NC(=O)C(O)CO)c1I (centres unmarked) [Example 99, N,N′-Bis(2,3-Dihydroxypropionyl)-3,5-diamino-2,4,6-triiodomandeloamide]
- Viscosity [2]: 7.4 mPas

Structure (SMILES): NC(=O)C(O)c1c(I)c(NC(=O)[C@H](O)[C@@H](O)CO)c(I)c(NC(=O)[C@H](O)[C@@H](O)CO)c1I (stereo partly drawn) [Example 104, N,N′-Bis(2R,3S,4-trihydroxybutyryl)-3,5-diamino-2,4,6-triiodomandeloamide]
- Viscosity [2]: 17.0 mPas

Structure (SMILES): NC(=O)C(O)c1c(I)c(NC(=O)CO)c(I)c(NC(=O)[C@H](O)[C@H](O)CO)c1I (stereo partly drawn) [Example 106, N-(2R,3R,4-Trihydroxybutyryl)-N′-hydroxyacetyl-3,5-diamino-2,4,6-triiodomandeloamide]
- Viscosity [2]: 8.8 mPas

Structure (SMILES): CC1(C)OCC(CNC(=O)c2c(I)c(NC(=O)C3COC(C)(C)O3)c(I)c(C(C#N)O[Si](C)(C)C)c2I)O1 (centres unmarked) [Example 113, 5-(2,2-Dimethyl-1,3-dioxolane-4-carbamido)-3-(O-trimethylsilyl-cyanomethyl)-N-(2,2-dimethyl-1,3-dioxolane-4-methyl)-2,4,6-triiodobenzamide]
- Viscosity [2]: 7.5 mPas

Structure (SMILES): NC(=O)C(O)c1c(I)c(NC(=O)C(O)CO)c(I)c(C(=O)NCC(O)CO)c1I (centres unmarked) [Example 114, 5-(2,3-Dihydroxypropionyl)amino-3-N-(2,3-dihydroxypropyl)carbamido-2,4,6-triiodomandeloamide]
- Viscosity [2]: 10.1 mPas
